# Reference: ChEMBL document CHEMBL3779866, “Synthetic approaches, structure activity relationship and biological applications for pharmacologically attractive pyrazole/pyrazoline-thiazolidine-based hybrids” (Eur J Med Chem, 2016)
# Assays:
# Leishmania donovani = assay: Antiparasitic activity against Leishmania donovani by cell based assay; type: functional, organism-based
# Plasmodium falciparum = assay: Antiparasitic activity against Plasmodium falciparum by cell based assay; type: functional, organism-based
# Candida albicans [1] = assay: Antimicrobial activity against Candida albicans ATCC 10231 by serial two-fold broth dilution method; type: functional
# Aspergillus fumigatus = assay: Antimicrobial activity against Aspergillus fumigatus HIC6094 by serial two-fold broth dilution method; type: functional
# Trichophyton rubrum = assay: Antimicrobial activity against Trichophyton rubrum IFO9185 by serial two-fold broth dilution method; type: functional
# [2] = test system: Trichophyton mentagrophytes; assay: Antimicrobial activity against Trichophyton mentagrophytes IFO40996 by serial two-fold broth dilution method; type: functional
# Escherichia coli [3] = assay: Antibacterial activity against Escherichia coli ATCC 25922 after 24 to 48 hrs by two-fold microdilution susceptibility assay; type: functional
# HeLa = assay: Cytotoxicity against human HeLa cells assessed as growth inhibition after 48 hrs by SRB assay; type: functional
# CCRF-CEM = assay: Cytotoxicity against human CCRF-CEM cells assessed as growth inhibition after 48 hrs by SRB assay; type: functional
# [4] = Cytotoxicity against human RPMI8226 cells assessed as growth inhibition after 48 hrs by SRB assay; type: functional; details: RPMI-8226, 48 h
# EKVX = assay: Cytotoxicity against human EKVX cells assessed as growth inhibition after 48 hrs by SRB assay; type: functional
# NCI-H522 = assay: Cytotoxicity against human NCI-H522 cells assessed as growth inhibition after 48 hrs by SRB assay; type: functional; details: NCI-H522, 48 h
# [5] = Cytotoxicity against human HOP92 cells assessed as growth inhibition after 48 hrs by SRB assay; type: functional; details: HOP-92, 48 h
# Candida albicans [6] = assay: Antifungal activity against Candida albicans after 24 to 48 hrs by two-fold microdilution susceptibility assay; type: functional
# Escherichia coli [7] = assay: Antimicrobial activity against Escherichia coli after 24 hrs by serial dilution method; type: functional
# HepG2 = assay: Cytotoxicity against human HepG2 cells assessed as growth inhibition after 48 hrs by SRB assay; type: functional; details: HepG2, 48 h
# Rattus norvegicus = assay: Antiinflammatory activity against albino rat assessed as inhibition of carrageenin induced paw edema at 100 mg/kg, po administered for 1 hr followed by carrageenin challenge measured after 4 hrs; type: functional
# Bacillus subtilis = assay: Antimicrobial activity against Bacillus subtilis MTCC 441 after 24 hrs by serial two-fold broth dilution method; type: functional; details: MTCC 441, 24 h
# [8] = test system: Lysinibacillus sphaericus; assay: Antimicrobial activity against Bacillus sphaericus MTCC 11 after 24 hrs by serial two-fold broth dilution method; type: functional; details: MTCC 11, 24 h
# Staphylococcus aureus = assay: Antimicrobial activity against Staphylococcus aureus MTCC 96 after 24 hrs by serial two-fold broth dilution method; type: functional; details: MTCC 96, 24 h
# Pseudomonas aeruginosa = assay: Antimicrobial activity against Pseudomonas aeruginosa MTCC 741 after 24 hrs by serial two-fold broth dilution method; type: functional; details: MTCC 741, 24 h
# Klebsiella aerogenes = assay: Antimicrobial activity against Klebsiella aerogenes MTCC 39 after 24 hrs by serial two-fold broth dilution method; type: functional; details: MTCC 39, 24 h
# [9] = test system: Chromobacterium violaceum; assay: Antimicrobial activity against Chromobacterium violaceum MTCC 2625 after 24 hrs by serial two-fold broth dilution method; type: functional; details: MTCC 2625, 24 h
smiles,measurement,setting,value
CC1=NN(C2=NC(=O)CS2)C(c2ccccc2)C1 (centres undefined),IC50,Leishmania donovani,> 30 mg/L
same,IC50,Plasmodium falciparum,> 5 mg/L
Cc1nn(-c2ccccc2)c(C)c1-c1cc(-c2ccc(Cl)cc2)nc(N2C(=O)CSC2c2ccc(N(C)C)cc2)n1 (centres undefined),MIC,Candida albicans [1],14 mg/L
same,MIC,Aspergillus fumigatus,14 mg/L
same,MIC,Trichophyton rubrum,14 mg/L
same,MIC,[2],14 mg/L
Cc1ccc(N2C(=O)CS/C2=N/N=C\c2cn(-c3ccccc3)nc2-c2ccc(Br)s2)cc1,MIC,Escherichia coli [3],25 mg/L
Cc1nn(-c2ccccc2)c(C)c1-c1cc(-c2ccc(Cl)cc2)nc(N2C(=O)CSC2c2ccco2)n1 (centres undefined),MIC,Candida albicans [1],14 mg/L
same,MIC,Aspergillus fumigatus,14 mg/L
same,MIC,Trichophyton rubrum,14 mg/L
same,MIC,[2],14 mg/L
Cc1ccc(N2C(=O)CSC2c2cn(-c3ccccc3)nc2-c2cc3ccccc3o2)cc1 (centres undefined),GI50,HeLa,1.2 mg/L
O=C1NC(=S)S/C1=C\c1cn(-c2ccccc2)nc1-c1ccccc1,GI50,CCRF-CEM,2.5 µM
same,GI50,[4],2.52 µM
same,GI50,EKVX,3.03 µM
same,GI50,NCI-H522,2.96 µM
same,GI50,[5],0.62 µM
same,CC50,[5]; read-out: LC50 (the source's name),> 100 µM
O=C1CS/C(=N/N=C\c2cn(-c3ccccc3)nc2-c2ccc(Br)s2)N1c1ccc(Cl)cc1,MIC,Candida albicans [6],12.5 mg/L
CC(=O)OC[C@@H]1O[C@@H](N2C(=O)/C(=C/c3cn(-c4ccccc4)nc3-c3ccc(Br)cc3)SC2=S)[C@@H](OC(C)=O)[C@H](OC(C)=O)[C@@H]1OC(C)=O,MIC,Escherichia coli [7],143 mg/L
C(=N\Nc1nc(-c2ccc3c(c2)CCCC3)cs1)/c1cn(-c2ccccc2)nc1-c1cc2ccccc2o1,GI50,HepG2,5 mg/L
CC(C(=O)O)c1cccc(C(=O)c2ccccc2)c1 (centres undefined) [KETOPROFEN],inhibition in vivo at 100 mg/kg,Rattus norvegicus,63%
CC1(C)S[C@@H]2[C@H](NC(=O)Cc3ccccc3)C(=O)N2[C@H]1C(=O)O [PENICILLIN G],MIC,Bacillus subtilis,1.56 mg/L
same,MIC,[8],1.56 mg/L
same,MIC,Staphylococcus aureus,1.56 mg/L
same,MIC,Pseudomonas aeruginosa,1.56 mg/L
same,MIC,Klebsiella aerogenes,1.56 mg/L
same,MIC,[9],1.56 mg/L
CN(C)[C@@H]1C(O)=C(C(N)=O)C(=O)[C@@]2(O)C(O)=C3C(=O)c4c(O)cccc4[C@@](C)(O)[C@H]3C[C@@H]12 [TETRACYCLINE],MIC,Escherichia coli [7],39 mg/L
